Experimental data from article PMC4680857, “Rat and human STINGs profile similarly towards anticancer/antiviral compounds” (Scientific Reports, 2015).
Positions count from the first letter of the chain named. Where two headings read alike, the source gives them in different places.

Tests used:
[1] = molecular target: T1, rSTING CTD (residues 155–341) (Rattus norvegicus, UniProt F1M391); assay: ITC binding to rSTING-CTD
T1 construct: rSTING (residues 155–341); His tag (TEV protease-cleavable) (N); made in house; host or cells: Escherichia coli BL21 (DE3)
T1 sequence (F1M391 155-341): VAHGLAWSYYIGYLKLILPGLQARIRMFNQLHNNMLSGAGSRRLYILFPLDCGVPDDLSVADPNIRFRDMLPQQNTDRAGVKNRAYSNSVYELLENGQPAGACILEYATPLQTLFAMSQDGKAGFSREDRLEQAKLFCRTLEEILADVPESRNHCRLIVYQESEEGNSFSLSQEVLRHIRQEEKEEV
Protocol: (§1) The plasimids of pET28a-rSTING^CTD, hSTING^CTD, mSTING^CTD and their variants were transformed into Escherichia coli BL21 (DE3) cells for overexpression. Cells were induced at 18 °C with 0.5 mM isopropyl β-d-1-thiogalactopyranoside for 20 hours, then collected and resuspended in buffer A (20 mM Tris-HCl, pH 8.0, 500 mM NaCl). Cells were subjected to ultrasonic lysis and clarified by centrifugation at 21,500 rpm for 90 minutes. Supernatants were loaded onto a HiTrap HP column (GE Healthcare, USA) equilibrated with buffer A. The contaminants were washed with buffer A containing 100 mM imidazole. The target proteins were eluted with buffer A containing 500 mM imidazole. Eluates were further purified by ion-exchange chromatography (HiTrap Q, GE Healthcare) and eluted with a linear sodium chloride gradient. Further purification steps were conducted through gel filtration (Superdex-200; GE Healthcare) equilibrated with 20 mM Tris–HCl, pH 8.0, 200 mM NaCl.
(§2) ITC measurements were performed with an iTC200 instrument (GE Healthcare) at 25 °C. […] A typical titration experiment involved 19 injections of ligand (2 mM) solution into the ITC cell containing protein (0.2 mM). The data were fitted to titration curves with Origin v7.0 (MicroCal).

[2] = system: hSTING haplotypes with residue 230 mutations; assay: IFN-β luciferase assay, residue 230 mutations in hSTING haplotypes; type: cell-based, human; details: 2′3′-cGAMP stimulation (Fig. 5c)
rSTING T230I = molecular target: T2, rSTING T230I (Rattus norvegicus, UniProt F1M391, T230I); assay: ITC binding to rSTING T230I
T2 construct: rSTING (residues 155–341); His tag (TEV protease-cleavable) (N); made in house; host or cells: Escherichia coli BL21 (DE3)
T2 sequence (F1M391 155-341 T230I): T1 sequence (F1M391 155-341) with T76I
Protocol: as §1, §2

rSTING T230L = molecular target: T3, rSTING T230L (Rattus norvegicus, UniProt F1M391, T230L); assay: ITC binding to rSTING T230L
T3 construct: rSTING (residues 155–341); His tag (TEV protease-cleavable) (N); made in house; host or cells: Escherichia coli BL21 (DE3)
T3 sequence (F1M391 155-341 T230L): T1 sequence (F1M391 155-341) with T76L
Description: The C-terminal domain of rSTING (residues 155–341), hSTING (residues 155–341), mSTING (residues 154–340) for ITC measurements, hereafter named rSTING^CTD, hSTING^CTD, mSTING^CTD, were constructed by cloning into pET28a vector between Nde I and Xho I restriction sites, which contains N-terminal TEV protease-cleavable His tag. All point mutations were generated by PCR-based site-directed mutagenesis method with KOD FX as the polymerase.
The plasimids of pET28a-rSTING^CTD, hSTING^CTD, mSTING^CTD and their variants were transformed into Escherichia coli BL21 (DE3) cells for overexpression. Cells were induced at 18 °C with 0.5 mM isopropyl β-d-1-thiogalactopyranoside for 20 hours, then collected and resuspended in buffer A (20 mM Tris-HCl, pH 8.0, 500 mM NaCl). Cells were subjected to ultrasonic lysis and clarified by centrifugation at 21,500 rpm for 90 minutes. Supernatants were loaded onto a HiTrap HP column (GE Healthcare, USA) equilibrated with buffer A. The contaminants were washed with buffer A containing 100 mM imidazole. The target proteins were eluted with buffer A containing 500 mM imidazole. Eluates were further purified by ion-exchange chromatography (HiTrap Q, GE Healthcare) and eluted with a linear sodium chloride gradient. Further purification steps were conducted through gel filtration (Superdex-200; GE Healthcare) equilibrated with 20 mM Tris–HCl, pH 8.0, 200 mM NaCl. […]

hSTING G230I variant = system: hSTING G230I variant; set-up: method as in Gao et al. [35]; details: ref Gao et al. [35]; cited from earlier work
[3] = molecular target: T4, hSTING CTD (residues 155–341) (Homo sapiens, UniProt Q86WV6, G230A/H232R); assay: ITC binding to hSTING-CTD
T4 construct: hSTING (residues 155–341); His tag (TEV protease-cleavable) (N); made in house; host or cells: Escherichia coli BL21 (DE3)
T4 sequence (Q86WV6 155-341 G230A/H232R): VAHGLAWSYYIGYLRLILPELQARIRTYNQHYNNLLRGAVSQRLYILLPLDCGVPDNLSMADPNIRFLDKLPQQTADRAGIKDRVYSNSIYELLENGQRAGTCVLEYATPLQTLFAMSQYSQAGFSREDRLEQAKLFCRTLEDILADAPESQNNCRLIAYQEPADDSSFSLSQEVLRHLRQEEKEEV
Protocol: as §1, §2

[4] = system: hSTING with A230 replaced by Ile or Leu; assay: ITC binding to hSTING mutants (Fig. S6); set-up: species or system human
Protocol: as §2

SMILES | Kd ([1]; ITC, 25 °C, WT rSTING-CTD (T230)) | binding affinity (in words) ([1]; ITC, rSTING CTD) | Kd [1] | binding affinity (in words) [1] | cGAMP-induced IFN-β production, differences between residue 230 mutations [2] | ΔH (rSTING T230I; rSTING T230I) | ΔS (rSTING T230I; rSTING T230I) | binding affinity greater than that for WT rSTING (rSTING T230I; rSTING T230I vs WT rSTING) | ΔH (rSTING T230L) | ΔS (rSTING T230L) | response of STING variant to compound (hSTING G230I variant) | ΔH ([1]; ITC, rSTING T230(WT)) | ΔS ([1]; ITC, rSTING T230(WT)) | binding affinity (in words) [3] | binding by ITC (in words) [4]
Nc1nc2c(ncn2[C@@H]2O[C@@H]3COP(=O)(O)O[C@H]4[C@@H](O)[C@H](n5cnc6c(N)ncnc65)O[C@@H]4COP(=O)(O)O[C@H]3[C@H]2O)c(=O)[nH]1 [3′3′-cGAMP] | 550 ± 110 nM | high binding affinities |  |  |  |  |  |  |  |  |  |  |  |  | 
Nc1nc2c(ncn2[C@@H]2O[C@@H]3COP(=O)(O)O[C@H]4[C@@H](O)[C@H](n5cnc6c(N)ncnc65)O[C@@H]4COP(=O)(O)O[C@@H]2[C@@H]3O)c(=O)[nH]1 [2′3′-cGAMP, cyclic GMP-AMP with 2′5′ and 3′5′ phosphodiester linkage] |  |  | 120 ± 30 nM | high binding affinities | no differences |  |  |  |  |  |  |  |  |  | 
Cc1ccc2c(=O)c3cccc(CC(=O)O)c3oc2c1C [DMXAA, 5,6-Dimethylxanthenone 4-acetic acid] |  | none or only weak affinity |  |  |  | -3.86 ± 0.10 kcal/mol | 16.0 cal/mol/deg | 50 fold | -2.31 ± 0.07 kcal/mol | 16.6 cal/mol/deg | can respond | -2.77 ± 0.09 kcal/mol | 11.7 cal/mol/deg | none or only weak affinity | detectable binding
